Read-outs that look alike come from different tables or passages of the source.
Experiments:
Format in all cases: in vivo
Rat = system: Rat
Description: (§1) Using standard protocols, including the ones described above for administration to flies, a variety of agents were administered at different doses to mice, rats and flies and the LD for each agent was compared.

Fly = system: Fly
Description: The chemical is dissolved in water at or near its saturation point. Serial dilutions of this stock solution are used to rehydrate instant fly media (Fisher Scientific). Specifically, one toxicity assay will comprise of instant fly media rehydrated with pure stock solution of a chemical, while another will be rehydrated with a 10% solution of the chemical (in water). This format will be used to generate data over a 4 to 5 log dose range for each chemical tested.
A known quantity of embryos, typically between 40-50, is used as the input. Specifically, 40 to 50 embryos are counted and placed in the receptacle that contains the media/chemical mixture to be tested. The embryos may be counted manually or by automation (e.g., liquid suspension of embryos flowing through a diode). The larva feed on the media/chemical mixture. All aspects of development from larva stage to adult must proceed normally in the presence of the chemical. The only food and water source available to the larva and flies contains the chemical. […] Specifically, Iron, Copper, and zinc have been selected. Sensitive and accurate kits are commercially available to analyze these chemicals down to a concentration of 1 part per million. This will assign quantitative analyses to determine variability between larva in a test receptacle and between larva in different receptacles.
The developing larva and pupa are examined for normal growth and development. Then the adult flies are analyzed for lethality, sterility, developmental defects, and life span alterations. Lethality is determined by dividing the number of adult flies that eclose by the total number of embryos that were placed in the receptacle. Sterility is examined for both males and females by crossing them to normal flies. […] Finally the flies are allowed to live the natural span of their life to determine whether an effect occurred to either shorten or lengthen the average lifespan of the fly.
as §1

fruit fly = test: AntiToxicity screen: fly survival with toxins with and without EDTA; conditions: yeast paste: None
Text: This binding can occur in vitro or in vivo. In vivo binding can lead to neutralizing the toxicity of heavy metals to animals.

Mouse = system: Mouse
Description: as §1

Row | Structure (SMILES) | Rat (oral LD50 mg/ml) (Rat; oral) | Fly (oral LD50 mg/ml) (Fly; oral, chemical in fly media) | Mouse (oral LD50 mg/ml) (Mouse; oral) | further results
1 | CN(C)c1ccncc1 [4-dimethyl aminopyridine] | 250 mg/mL | .15 mg/mL |  | 
2 | [Cu] [Copper] |  |  |  | % survival (fruit fly; fly food: 0.4 mM Copper): 50%; % survival (fruit fly; fly food: 1.1 mM Copper): 0%
3 | N[C@@H](Cc1ccc(O)c(O)c1)C(=O)O [L-dopa] | 1780 mg/mL | .7 mg/mL | 2363 mg/mL | 
4 | [Zn] [Zinc] |  |  |  | % survival (fruit fly; fly food: 2 mM Zinc): 50%; % survival (fruit fly; fly food: 6.0 mM Zinc): 0%
5 | O=S1(=O)OC(c2cc(Br)c(O)c(Br)c2)(c2cc(Br)c(O)c(Br)c2)c2ccccc21 [bromophenol blue] |  | 10 mg/mL |  | 
6 | [Cl][Cd][Cl] [cadmium chloride] | 88 mg/mL | .1 mg/mL | 60 mg/mL | 
7 | Clc1cccc(Cl)c1N=C1NCCN1 [clonidine] |  |  |  | Mouse (oral LD50 mg/ml) (Mouse; in vivo, po): 135 mg/mL; Rat (oral LD50 mg/ml) (Rat; in vivo, po): 126 mg/mL; Fly (oral LD50 mg/ml) (Fly; in vivo, po): .07 mg/mL
8 | [Cl-].[Li+] [lithium chloride] | 526 mg/mL | .4 mg/mL | 1165 mg/mL | 
9 | COP(=O)(OC)C(O)C(Cl)(Cl)Cl (stereo not shown) [metrifonate] | 560 mg/mL | .04 mg/mL | 300 mg/mL | toxicity category in mice (Mouse; mice, oral LD50 category): moderate toxicity; toxicity category in rats (Rat; rats, oral LD50 category): moderate toxicity; toxicity category in flies (Fly; flies, oral LD50 category): high toxic range
10 | NC(=O)c1cccnc1 [niacinamide] |  |  |  | Mouse (oral LD50 mg/ml) (Mouse; in vivo, po): 2500 mg/mL; Rat (oral LD50 mg/ml) (Rat; in vivo, po): 3500 mg/mL; Fly (oral LD50 mg/ml) (Fly; in vivo, po): 5 mg/mL
11 | Nc1ccccc1N [phenylenediamine] | 510 mg/mL | .2 mg/mL | 366 mg/mL | 
12 | [N-]=[N+]=[N-] [sodium azide] | 27 mg/mL | .05 mg/mL | 27 mg/mL | 
13 | O.O.O.O.O.O.O.O.O.O.[Na+].[Na+].[O-]B1OB2OB([O-])OB(O1)O2 [sodium borate] | 2660 mg/mL | 6.5 mg/mL | 2000 mg/mL | 

From patent US6855504B2, “In vivo high throughput toxicology screening method” (priority 1999, dated 2005)
